The results in this text go back to patent US12655116B2, “Substituted isophthalic acid diamides” (Bayer Aktiengesellschaft, priority 2020, dated 2026).

Experiment [1] concerns ABUTH. Description: Pre-emergence herbicidal action against ABUTH. It is filed as in vivo, Abutilon theophrasti. The essentials: (§1)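 Pre-emergence soil-surface spray of formulated compound (WP or EC; 600 to 800 l/ha; 0.2% wetting agent) over seeds sown in sandy loam. After 3 weeks under greenhouse conditions, damage is estimated visually in percent against untreated plants.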

Experiment [2] relates to ECHCG. Description: Pre-emergence herbicidal action against ECHCG. It is filed as in vivo, Echinochloa crus-galli. The note with it: 80 g/ha. Put shortly:
as §1

In another experiment the test system is PHBPU. Description: Post-emergence herbicidal action against PHBPU. It counts as in vivo, Pharbitis purpurea. Conditions: dosage 20 g/ha. Put shortly:
(§2)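 Greenhouse plants in sandy loam were sprayed at the one-leaf stage, 2 to 3 weeks after sowing, with WP or EC formulations as aqueous suspension or emulsion (600 to 800 l/ha water, 0.2% wetting agent). Visual damage was scored about 3 weeks later versus untreated controls, 0% = like control, 100% = dead.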

In experiment [3] the test system is VIOTR. As to the kind of experiment: Pre-emergence herbicidal action against VIOTR. It is filed as in vivo, Viola tricolor. Put shortly:
as §1

Experiment [4] concerns AMARE. Description: Post-emergence herbicidal action against AMARE. It is filed as in vivo, Amaranthus retroflexus. Conditions: 20 g/ha, visual assessment about 3 weeks after treatment, 100% = plants have died, 0% = like control plants. The essentials: as §2
Experiment [5] relates to VERPE. As to the kind of experiment: Post-emergence herbicidal action against VERPE. It counts as in vivo, Veronica persica. Conditions: 20 g/ha. The method, then: Seeds of monocotyledonous and dicotyledonous weed and crop plants are laid out in sandy loam soil in wood-fiber pots, covered with soil and cultivated in a greenhouse under good growth conditions. 2 to 3 weeks after sowing, the test plants are treated at the one-leaf stage. The compounds of the invention, formulated in the form of wettable powders (WP) or as emulsion concentrates (EC), are then sprayed onto the green parts of the plants in the form of an aqueous suspension or emulsion at a water application rate equivalent to 600 to 800 l/ha, with addition of 0.2% wetting agent. After the test plants have been left to stand in the greenhouse under optimal growth conditions for about 3 weeks, the action of the preparations is assessed visually in comparison to untreated controls (herbicidal action in percent (%): 100% activity=the plants have died, 0% activity=like control plants). […] The tables below illustrate, in an illustrative manner, the post-emergence herbicidal action of the compounds of the invention, the herbicidal activity being stated in percent.

In experiment [6] the test system is VERPE. Description: Pre-emergence herbicidal action against VERPE. It counts as in vivo, Veronica persica. Conditions: dosage 80 g/ha. The essentials:
as §1

Experiment [7] has as its system ALOMY. Description: Post-emergence herbicidal action against ALOMY. The note with it: dosage 20 g/ha, visual assessment about 3 weeks after treatment vs untreated controls. It is filed as in vivo, Alopecurus myosuroides. Put shortly:
as §2

For experiment [8], the system named is MATIN. Description: Post-emergence herbicidal action against MATIN. It counts as in vivo, Matricaria inodora. Conditions: dosage 20 g/ha. The essentials: as §2
Experiment [9] relates to MATIN. As to the kind of experiment: Pre-emergence herbicidal action against MATIN. It counts as in vivo, Matricaria inodora. The essentials:
as §1

Experiment [10] has as its system ALOMY. Description: Pre-emergence herbicidal action against ALOMY. It counts as in vivo, Alopecurus myosuroides. The note with it: pre-emergence. Put shortly: as §1
Experiment [11] has as its system SETVI. Description: Pre-emergence herbicidal action against SETVI. It counts as in vivo, Setaria viridis. The note with it: dosage 80 g/ha. The essentials: as §1
The test system of experiment [12] is VIOTR. As to the kind of experiment: Post-emergence herbicidal action against VIOTR. It counts as in vivo, Viola tricolor. Put shortly: as §2
The subject of experiment [13] is AMARE. As to the kind of experiment: Pre-emergence herbicidal action against AMARE. It is filed as in vivo, Amaranthus retroflexus. Put shortly:
as §1

The subject of experiment [14] is ECHCG. Description: Post-emergence herbicidal action against ECHCG. It is filed as in vivo, Echinochloa crus-galli. Conditions: dosage 20 g/ha. The essentials:
as §2

Experiment [15] deals with ABUTH. Description: Post-emergence herbicidal action against ABUTH. It is filed as in vivo, Abutilon theophrasti. Conditions: visual assessment about 3 weeks after treatment vs untreated controls. The essentials:
as §2

Experiment [16] deals with SETVI. As to the kind of experiment: Post-emergence herbicidal action against SETVI. It is filed as in vivo, Setaria viridis. The essentials:
as §2

Experiment [17] relates to DIGSA. As to the kind of experiment: Pre-emergence herbicidal action against DIGSA. It is filed as in vivo, Digitaria sanguinalis. The note with it: Digitaria sanguinalis, 504 h. Put shortly:
as §1

The test system of the next experiment is AVEFA. Description: Pre-emergence herbicidal action against AVEFA. The note with it: Avena fatua, 504 h; 80 g/ha, pre-emergence. It counts as in vivo, Avena fatua. The essentials:
as §1

Experiment [18] concerns DIGSA. Description: Post-emergence herbicidal action against DIGSA. It is filed as in vivo, Digitaria sanguinalis. Conditions: Digitaria sanguinalis, 504 h. The essentials:
as §2

Setting [19] is: 80 g/ha, scored visually after 3 weeks vs untreated controls (100% = plants have died, 0% = like control plants).

For `CSc1c(C(=O)Nc2nnnn2C)ccc(C(F)F)c1C(=O)NCC1CC1` [Example 1-90], the “Pre-emergence action against ABUTH (herbicidal activity)” value with ABUTH [1] (setting [19]) was determined as 100%. Also, the “Pre-emergence action against ABUTH (herbicidal activity in percent)” value in the experiment on ABUTH [1] (dosage 20 g/ha, scored visually after 3 weeks vs untreated controls, 100% = plants have died, 0% = like control plants) is on record as 100%. The “Pre-emergence action against ECHCG in %” value in the experiment on ECHCG [2] amounted to 100%. The “Post-emergence action against PHBPU in %” value in the experiment on PHBPU was 90%. The “Pre-emergence action against VIOTR in %” value stood at 90% in the experiment with VIOTR [3] (dosage 20 g/ha) and 100% in the experiment with VIOTR [3] (dosage 80 g/ha). Moreover, the “Post-emergence action at 20 g/ha against AMARE in %” value with AMARE [4] turned out to be 100%. Further, the “Post-emergence action against VERPE in %” value with VERPE [5] amounted to 90%. The “Pre-emergence action against VERPE in %” value in the experiment with VERPE [6] is on record as 90%. The “Post-emergence action against ALOMY in %” value with ALOMY [7] came out at 80%. The “Post-emergence action against MATIN in %” value in the experiment with MATIN [8] turned out to be 80%. Moreover, the “Pre-emergence action against MATIN in %” value in the experiment with MATIN [9] (dosage 20 g/ha) and in the experiment on MATIN [9] (dosage 80 g/ha) was 100% each time. Besides, the “Pre-emergence action against ALOMY (herbicidal activity)” value in the experiment with ALOMY [10] (setting [19]) was 80%. Besides, the “Pre-emergence action against SETVI in %” value in the experiment on SETVI [11] is given as 100%. In addition, the entries for the “Post-emergence action against VIOTR in %” value with VIOTR [12] (5 g/ha) and in the experiment on VIOTR [12] (20 g/ha) were 80% and 100%, respectively. Also, the “Pre-emergence action against AMARE in %” value with AMARE [13] (20 g/ha, scored visually after 3 weeks vs untreated controls, 100% = plants have died, 0% = like control plants) is recorded as 100%; in the experiment with AMARE [13] (setting [19]), 100%. Besides, in the experiment on ECHCG [14], the “Post-emergence action against ECHCG in %” value is 100%. For the same molecule, the “Post-emergence action against ABUTH in %” value in the experiment on ABUTH [15] (dosage 5 g/ha) is reported as 80%; in the experiment on ABUTH [15] (dosage 20 g/ha) it was 90%. In addition, the “Post-emergence action against SETVI in %” value with SETVI [16] (dosage 20 g/ha) is 90%.

As for `Cn1nnnc1NC(=O)c1ccc(C(F)(F)F)c(C(=O)NCC(F)(F)F)c1Cl` [Example 1-133], the pest or weed control (in general, the degree to which the test organism was suppressed or injured, in per cent) at 20 g/ha stood at 90% in the experiment with DIGSA [17] (dosage 20 g/ha); 80% in the experiment on PHBPU (Ipomoea purpurea, 504 h); 100% with VIOTR [3] (Viola tricolor, 504 h, dosage 20 g/ha); 100% in the experiment on AMARE [4] (Amaranthus retroflexus, 504 h); 90% with VERPE [5] (Veronica persica, 504 h); 90% in the experiment with ALOMY [7] (Alopecurus myosuroides, 504 h). Also, the pest or weed control at 20 g/ha in the experiment with MATIN [9] (Tripleurospermum inodorum, 504 h, dosage 20 g/ha) was found to be 90%; in the experiment on ALOMY [10] (Alopecurus myosuroides, 504 h, 20 g/ha, scored visually after 3 weeks, 100% = plants have died, 0% = like control plants), 90%; in the experiment on VIOTR [12] (Viola tricolor, 504 h, 20 g/ha) it was 80%; in the experiment with DIGSA [18] (20 g/ha), 90%; in the experiment with AMARE [13] (Amaranthus retroflexus, 504 h, 20 g/ha, scored visually after 3 weeks vs untreated controls, 100% = plants have died, 0% = like control plants), 90%; in the experiment with SETVI [16] (Setaria viridis, 504 h, dosage 20 g/ha), 100%. Also, the pest or weed control at 80 g/ha in the experiment with DIGSA [17] (dosage 80 g/ha) was 100%; in the experiment with ABUTH [1] (Abutilon theophrasti, 504 h, 80 g/ha, scored visually after 3 weeks vs untreated controls (100% = plants have died, 0% = like control plants)), 100%; in the experiment on AVEFA, 100%; in the experiment on ECHCG [2] (Echinochloa crus-galli, 504 h), 100%; in the experiment on VIOTR [3] (Viola tricolor, 504 h, dosage 80 g/ha), 100%; in the experiment with MATIN [9] (Tripleurospermum inodorum, 504 h, dosage 80 g/ha) it was 100%. In addition, the pest or weed control at 80 g/ha in the experiment with ALOMY [10] (Alopecurus myosuroides, 504 h, 80 g/ha, scored visually after 3 weeks vs untreated controls (100% = plants have died, 0% = like control plants)) was determined as 90%; in the experiment on SETVI [11] (Setaria viridis, 504 h), 100%; with AMARE [13] (Amaranthus retroflexus, 504 h, 80 g/ha, scored visually after 3 weeks vs untreated controls, 100% = plants have died, 0% = like control plants) it was 100%. The pest or weed control at 5 g/ha with DIGSA [18] (5 g/ha) was determined as 90%; in the experiment on SETVI [16] (Setaria viridis, 504 h, dosage 5 g/ha) it was 90%.
